Data set [1] can be described thus: Metabolic stability in mouse liver microsomes. The format is in vitro ADME. The note with it: mouse liver microsomes 0.5 mg/mL, NADPH, 37° C.; for CLint scaled at 1 µM: pH 7.4, read-out: MLM_CLint. As for the experimental part:
(§1) Determinations of the metabolic stability of the compound from the above embodiments, the detailed operation steps are as followed:
(§2) 1. Preparation of buffer C:
(§3) Buffer A: 1.0 L of 0.1 M potassium dihydrogen phosphate buffer (containing 1.0 mM EDTA);
(§4) Buffer B: 1.0 L of 0.1 M dipotassium hydrogen phosphate buffer (containing 1.0 mM EDTA);
(§5) Buffer C: 500 mL Buffer B was titrated with Buffer A to pH 7.4.
(§6) 2. 10 mM stock solution preparation:
(§7) 10 mM test compound: A certain amount of the test compound was weighed and dissolved in DMSO.
(§8) 10 mM control: 5.455 mg of ketanserin dissolved in 1 mL DMSO.
(§9) 3. Preparation of the drug solution:
(§10) 500 μM solution: 5 μL of 10 mM stock solution (see step 2) was added into 95 μL ACN;
(§11) 1.5 μM dosing solution (dissolved in liver microsome solution):
(§12) 18.75 μL of 20 mg/mL liver microsomes was added into 479.75 μL of Buffer C, then 1.5 μL of 500 μM solution was added and mixed gently by shaking.
(§13) 4. Preparation of 6 mM NADPH solution:
(§14) 15 mg NADPH was weighted, then added into 3 mL of buffer C to prepare a 6 mM NADPH solution.
(§15) 5. 30 µL of 1.5 μM dosing solution (see step 3) was added into the wells of the 96-well plate set at different time points (0 minutes, 5 minutes, 15 minutes, 30 minutes, 45 minutes), number of dulplicate sample is 2.
(§16) 6. Preparation of a 0 minutes sample: 135 μL ACN (with internal standard) was added to the 0 minutes well, followed by 15 µL of 6 mM NADPH solution.
(§17) 7. The 96-well plate containing 1.5 μM dosing solution and NADPH solution were preheated in a 37° C. water bath for 5 minutes.
(§18) 8. The 15 µL of 6 mM NADPH solution preheated was added into the wells set to 5 minutes, 15 minutes, 30 minutes, 45 minutes, then the reaction was initiated and started counting the time.
(§19) 10. The sample was vortexed for 10 min, and then centrifuged for 15 minutes on a centrifuge (Thermo Multifuge×3R) using 5594×g.
(§20) 11. 50 μL of the supernatant was taken from the centrifuged sample, transferred to a 96-well sample plate to which 100 μL of ultrapure water had already been added, mixed, and finally sent to LC-MS/MS for analysis.
(§21) Half time (T1/2)=0.693/K (K is the rate constant obtained by linear regression of the logarithm of the concentration as vertical coordinates and the culturing time as the abscissa)
(§22) 2. According to the equation formula bellow, Excel was used to plot the compound content versus reaction time, as well as half life calculation (min)
(§23) Y=(Y0−Plateau)×e^(−K*X)+Plateau
(§24) Y0 represents the compound content at 0 minutes; Y represents the compound content; X represents the time point; K represents degration rate constant of the compound; Plateau represents the lowest possible content of the compound (defined herein as 0).
Background: Liver microsomes are a subcellular fraction often used to study metabolism.

Data set [2] is described as follows: Metabolic stability in human liver microsomes. The format is in vitro ADME. To be noted: human liver microsomes 0.5 mg/mL, NADPH, 37° C.; for CLint scaled at 1 µM: pH 7.4, read-out: HLM_CLint. As for the experimental part: as §1, §2, §3, §4, §5, §6, §7, §8, §9, §10, §11, §12, §13, §14, §15, §16, §17, §18, §19, §20, §21, §22, §23, §24
In another data set the target is T1, BRD4 (BD1) (Homo sapiens, UniProt O60885).
T1 construct: Each member comprises two tandem bromodomains (BD1 and BD2) for recognizing the acetylated lysine residues
The data set is described as follows: BRD4 (BD1) bromodomain binding, HTRF. The note with it: 2 h incubation at r.t.

The next data set relates to MV-4-11 cells. The data set is described as follows: Inhibitory effect on MV-4-11 cells (CellTiter-Glo). In kind it is cell-based. To be noted: Homo sapiens, MV4-11; 72 hours, CellTiter-Glo; read-out: MV-4-11. (In general: Cellular ATP, detected with luciferase, serves as a proxy for viable cell number.)
A further data set deals with T2, BRD4 (BD2) (Homo sapiens, UniProt O60885).
T2 construct: Each member comprises two tandem bromodomains (BD1 and BD2) for recognizing the acetylated lysine residues
Nature of the data set: BRD4 (BD2) bromodomain binding, HTRF. The note with it: 2 h incubation at r.t. For orientation: Time-resolved FRET reads energy transfer from a long-lived donor to a nearby acceptor.

`CCS(=O)(=O)Cc1ccc2c(c1)-c1nn(C)c(=O)cc1C(C)N=C2c1ccc(F)cc1` (centres unmarked) [Compound 4081, 10-((Ethylsulfonyl)methyl)-7-(4-flurophenyl)-2,5-dimethyl-2,5-dihydro-3H-benzo[c]pyridazino[3,4-e]azepin-3-ketone]: in data set [1], the MLM_T1/2 result was “∞”. For the same compound, the HLM_T1/2 in data set [2] is recorded as 2952.57 min. Further, the CLint scaled at 1 µM in data set [2] was 0.59 mL/min/kg. For the same compound, the figures for the IC50 on BRD4 (BD1), in the data set with MV-4-11 cells and on BRD4 (BD2) were 6 nM, 30 nM and 3 nM, respectively.
`CCS(=O)(=O)Cc1ccc2c(c1)-c1cn(C)c(=O)cc1CN=C2c1ccc(F)cc1F` [Compound 4012, 7-(2,4-difluorophenyl)-2-methyl-10-(ethylsulfonemethyl)-2H-benzo[c]pyrido[3,4-e]azepin-3(5H)-ketone]: the MLM_T1/2 in data set [1] is listed as 1568.22 min. Further, the results for the CLint scaled at 1 µM in data set [1] and in data set [2] were 3.48 mL/min/kg and 1.18 mL/min/kg, respectively. This compound also had an HLM_T1/2 in data set [2] of 1473.23 min. The IC50 at BRD4 (BD1) was 4 nM; with MV-4-11 cells it was 80 nM; on BRD4 (BD2), 2 nM.
In data set [1], `Cn1cc2c(cc1=O)[C@H](CC(N)=O)N=C(c1ccc(Cl)cc1)c1ccccc1-2` [Compound 4017, (S)-2-(7-(4-chlorophenyl)-2-methyl-3-oxo-3,5-dihydro-2H-benzo[c]pyrido[3,4-e]azepin-5-yl)acetamide] came in with an MLM_T1/2 of 215.28 min. Also, the CLint scaled at 1 µM in data set [1] was 25.4 mL/min/kg; in data set [2] it was 2.03 mL/min/kg. In data set [2], the HLM_T1/2 is reported as 854.27 min. Also, the results for the IC50 on BRD4 (BD1), with MV-4-11 cells and on BRD4 (BD2) were 4 nM, 10 nM and 2 nM, respectively.
Turning to `CNS(=O)(=O)Cc1ccc2c(c1)-c1cn(C)c(=O)cc1[C@H](C)N=C2c1ccc(F)cc1` [Compound 4072, (S)-1-(7-(4-flurophenyl)-2,5-dimethyl-3-oxo-3,5-dihydro-2H-benzo[c]pyrido[3,4-e]azepin-10-yl)-N-methylmethane sulfamide], the MLM_T1/2 in data set [1] amounted to 372.45 min. Moreover, in data set [1], the CLint scaled at 1 µM turned out to be 14.7 mL/min/kg. For the same compound, the HLM_T1/2 result in data set [2] was “∞”. The IC50 was 1 nM on BRD4 (BD1), 6 nM in the data set with MV-4-11 cells and 1 nM on BRD4 (BD2).
In the case of `Cn1cc2c(cc1=O)[C@H](CC(N)=O)N=C(c1ccc(Cl)cc1)c1ncccc1-2` [Compound 4029, (S)-2-(7-(4-chlorophenyl)-2-methyl-3-oxo-3,5-dihydro-2H-dipyrido[2,3-c:3′,4′-e]azepin-5-yl)acetamide], the IC50 came to 6 nM at BRD4 (BD1), 69 nM in the data set on MV-4-11 cells and 2 nM at BRD4 (BD2).
On to `C[C@@H]1N=C(c2ccc(F)cc2)c2ccc(CS(C)(=O)=O)cc2-c2cn(C)c(=O)cc21` [Compound 4059, (S)-7-(4-flurophenyl)-2,5-dimethyl-10-((dimethylfulfone)methyl)-2,5-dihydro-3H-benzo[c]pyrido[3,4-e]azepin-3-ketone], for which the IC50 at BRD4 (BD1) turned out to be 2 nM; with MV-4-11 cells, 7 nM; on BRD4 (BD2), 1 nM.
Regarding `CCS(=O)(=O)Cc1ccc2c(c1)-c1cn(C)c(=O)cc1[C@H](C)N=C2c1ccc(F)c(OC)c1` [Compound 4054, (S)-10-((ethylsulfonyl)methyl)-7-(4-fluoro-3-methoxylphenyl)-2,5-dimethyl-2,5-dihydro-3H-benzo[c]pyrido[3,4-e]azepin-3-ketone], the results for the IC50 on BRD4 (BD1), in the data set on MV-4-11 cells and on BRD4 (BD2) were 2 nM, 9 nM and 1 nM, respectively.
In the same order, the values of `CCS(=O)(=O)Cc1cc2c(cn1)C(c1ccc(Cl)cc1)=NCc1cc(=O)n(C)cc1-2` [Compound 4027, 7-(4-chlorophenyl)-10-((ethylsulfonyl)methyl)-2-methyl-2,5-dihydro-3H-dipyrido[3,4-c:3′,4′-e]azepin-3-ketone] are 12 nM, 128 nM and 6 nM.
As for `CCS(=O)(=O)Cc1ccc2c(c1)-c1cn(C)c(=O)cc1[C@H](C)N=C2c1ccc(F)c(O)c1` [Compound 4064, (S)-10-((ethylsulfonyl)methyl)-7-(4-fluoro-3-hydroxylphenyl)-2,5-dimethyl-2,5-dihydro-3H-benzo[c]pyrido[3,4-e]azepin-3-ketone], the IC50 is 2 nM on BRD4 (BD1), 8 nM in the data set on MV-4-11 cells and 1 nM on BRD4 (BD2).
With `C[C@@H]1N=C(c2ccc(F)cc2)c2ccc(CS(=O)(=O)C3CC3)cc2-c2cn(C)c(=O)cc21` [Compound 4045, (S)-7-(4-flurophenyl)-2,5-dimethyl-10-((cyclopropylsulfone)methyl)-2,5-dihydro-3H-benzo[c]pyrido[3,4-e]azepin-3-ketone], the IC50 at BRD4 (BD1) amounted to 1 nM; in the data set with MV-4-11 cells it was 8 nM; on BRD4 (BD2), 1 nM.
`CCS(=O)(=O)Cc1ccc2c(c1)-c1cn(C)c(=O)cc1CN=C2c1ccc(F)c(OC)c1` [Compound 4089, 10-((ethylsulfonyl)methyl)-7-(4-fluoro-3-methoxylphenyl)-2-methyl-2,5-dihydro-3H-benzo[c]pyrido[3,4-e]azepin-3-ketone]: the values for the IC50 at BRD4 (BD1), in the data set with MV-4-11 cells and at BRD4 (BD2) were 8 nM, 108 nM and 4 nM, respectively.
Turning to `CCNC(=O)C[C@@H]1N=C(c2ccc(F)cc2)c2ccc(CS(=O)(=O)CC)cc2-c2cn(C)c(=O)cc21` [Compound 4056, (S)—N-ethyl-2-(10-((ethylsulfonyl)methyl)-7-(4-flurophenyl)-2-methyl-3-oxo-3,5-dihydro-2H-benzo[c]pyrido[3,4-e]azepin-5-yl)acetamide], the results for the IC50 on BRD4 (BD1), with MV-4-11 cells and on BRD4 (BD2) were 1 nM, 32 nM and 1 nM, respectively.
In the case of `CCS(=O)(=O)Cc1ccc2c(c1)-c1cn(C)c(=O)cc1[C@H](C)N=C2c1ccc(F)cc1OC` [Compound 4087, (S)-10-((ethylsulfonyl)methyl)-7-(4-fluoro-2-methoxylphenyl)-2,5-dimethyl-2,5-dihydro-3H-benzo[c]pyrido[3,4-e]azepin-3-ketone], the IC50 on BRD4 (BD1) came to 4 nM; in the data set on MV-4-11 cells, 26 nM; on BRD4 (BD2) it was 1 nM.
`CCS(=O)(=O)Nc1ccc2c(c1)-c1cn(C)c(=O)cc1[C@H](C)N=C2c1ccc(F)cc1` [Compound 4049, (S)—N-(7-(4-flurophenyl)-2,5-dimethyl-3-oxo-3,5-dihydro-2H-benzo[c]pyrido[3,4-e]azepin-10-yl)ethylsulfonamide]: the IC50 on BRD4 (BD1) worked out at 2 nM; with MV-4-11 cells, 1 nM; at BRD4 (BD2), 1 nM.
As to `CCS(=O)(=O)Nc1cc2c(cc1F)C(c1ccc(F)cc1)=NN(C)c1cc(=O)n(C)cc1-2` [Compound 4092, N-(9-fluoro-7-(4-flurophenyl)-2,5-dimethyl-3-oxo-3,5-dihydro-2H-benzo[e]pyrido[4,3-c][1,2]diazepin-10-yl)ethylsulfonamide], the IC50 on BRD4 (BD1) stood at 1 nM; in the data set with MV-4-11 cells, 3 nM; at BRD4 (BD2), 0.6 nM.
In the same order, the values of `CNS(=O)(=O)C(C)(C)c1ccc2c(c1)-c1cn(C)c(=O)cc1[C@H](C)N=C2c1ccc(F)cc1` [Compound 4090, (S)-2-(7-(4-flurophenyl)-2,5-dimethyl-3-oxo-3,5-dihydro-2H-benzo[c]pyrido[3,4-e]azepin-10-yl)-N-methylpropane-2-sulfamide] are 1 nM, 3 nM and 1 nM.
For `CCS(=O)(=O)Nc1cc2c(cc1Cl)C(c1ccc(Cl)cc1)=N[C@@H](C)c1cc(=O)n(C)cc1-2` [Compound 4068, (S)—N-(9-chloro-7-(4-chlorophenyl)-2,5-dimethyl-3-oxo-3,5-dihydro-2H-benzo[c]pyrido[3,4-e]azepin-10-yl)ethylsulfonamide], in that order: 1 nM, 1 nM and 0.5 nM.

Source of the values: US20190284192A1, “NITROGENOUS MACROCYCLIC COMPOUND, PREPARATION METHOD THEREFOR, PHARMACEUTICAL COMPOSITION AND APPLICATION THEREOF” (LUOXIN PHARMACEUTICAL (SHANGHAI) CO., LTD., priority 2016, published 2019).
